Results from patent US20050059718A1, “Methods of using zonisamide as an adjunctive therapy for partial seizures” (priority 2003, published 2005).
“Also recorded” adds a separate entry of the source.

Legend:
[1] = patients; cited from earlier work
[2] = Text: The clinical manifestations of myeloma vary from smoldering myeloma to symptomatic plasma cell dyscrasia. A lot of variables, alone or in combination, have been used as a discriminating index of malignant proliferation of B-lymphocytes or plasma cells.
[3] = system: sodium channels; conditions: in vitro; cited from earlier work
[4] = system: T-type Ca2+ currents; conditions: in vitro; cited from earlier work
[5] = system: GABA/benzodiazepine receptor ionophore complex; conditions: in vitro; no change in chloride flux; cited from earlier work
[6] = system: cultured mouse spinal cord neurons; conditions: 10-30 μg/mL, cited from earlier work
[7] = system: rat hippocampal slices; conditions: 10-30 μg/mL; cited from earlier work
[8] = system: dopaminergic and serotonergic neurotransmission; conditions: in vivo microdialysis; cited from earlier work
[9] = system: liver enzymes; conditions: cited from earlier work
[10] = cited from earlier work
[11] = patients on regular dosages; cited from earlier work
[12] = system: carbonic anhydrase; conditions: relative to acetazolamide; cited from earlier work

**Q.** For NC(=O)N1c2ccccc2C=Cc2ccccc21 [Carbamazepine], which “association with multiple myeloma” value [1] is on record?
**A.** associated with development of MM

**Q.** For O=C1NC(=O)C(c2ccccc2)(c2ccccc2)N1 [phenyloin], which “association with multiple myeloma” value [1] is on record?
**A.** implicated in several incidents of multiple myeloma

**Q.** For CCC1(c2ccccc2)C(=O)NCNC1=O [primidone], which “association with multiple myeloma” value [1] is on record?
**A.** associated with development of MM

**Q.** For CCCC(CCC)C(=O)[O-].[Na+] [sodium valproate], which “seizure control after replacing zonisamide” value ([2]; 13-month follow-up) is on record?
**A.** prevented convulsions

**Q.** For NS(=O)(=O)Cc1noc2ccccc12 [zonisamide, 1,2-benzisoxazole-3-methanesulfonamide], which “Bence-Jones protein in urine” value ([2]; human, in vivo) is on record?
**A.** not demonstrated

**Q.** And the M-protein concentration ([2]; human, in vivo)?
**A.** > 3.5 g/dL

**Q.** What about the “bone marrow chromosomal analysis” value ([2]; human, in vivo) of the same compound?
**A.** normal karyotype of 46 XY

**Q.** And the diagnosis ([2]; human, in vivo)?
**A.** smoldering multiple myeloma

**Q.** What about the “helper T cell count (CD4)” value ([2]; human, in vivo) of the same compound?
**A.** normal

**Q.** What about the peripheral blood examination ([2]; human, in vivo) of the same compound?
**A.** no cytopenia

**Q.** What about the “serum IgA” value ([2]; human, in vivo) of the same compound?
**A.** 40 mg/dL

**Q.** And the “serum IgM” value ([2]; human, in vivo)?
**A.** 38 mg/dL

**Q.** What about the “serum creatinine, calcium and beta2-microglobulin” value ([2]; human, in vivo) of the same compound?
**A.** not elevated

**Q.** What about the “serum immunoglobulin G (IgG)” value ([2]; human, in vivo) of the same compound?
**A.** 3.68 g/dL

**Q.** And the serum protein immunoelectrophoresis ([2]; human, in vivo)?
**A.** M-protein composed of IgG with a single lambda type of L-chain

**Q.** And the “effect on sodium channels” value [3]?
**A.** blocks sodium channels

**Q.** And the “effect on voltage-dependent, transient inward currents (T-type Ca2+ currents)” value [4]?
**A.** reduces voltage-dependent, transient inward currents

**Q.** What about the “binding to GABA/benzodiazepine receptor ionophore complex” value [5] of the same compound?
**A.** binds to the GABA/benzodiazepine receptor ionophore complex in an allosteric fashion

**Q.** And the “postsynaptic GABA or glutamate responses” value ([6]; cultured mouse spinal cord neurons)?
**A.** without affecting postsynaptic GABA or glutamate responses

**Q.** What about the synaptically-driven electrical activity [6] of the same compound?
**A.** suppresses synaptically-driven electrical activity

**Q.** What about the “neuronal or glial uptake of [3H]-GABA” value [7] of the same compound?
**A.** without affecting

**Q.** What about the “dopaminergic and serotonergic neurotransmission” value [8] of the same compound?
**A.** facilitates both dopaminergic and serotonergic neurotransmission

**Q.** And the “liver (hepatic) enzyme induction” value [9]?
**A.** not known to be a hepatic enzyme inducer; also recorded: no liver enzyme inducing activity

**Q.** What about the half-life ([10]; in vivo) of the same compound?
**A.** long half-life

**Q.** And the “time required to achieve steady-state levels” value ([10]; upon reaching a stable dose or following dosage adjustment)?
**A.** up to two weeks

**Q.** What about the “correlation between dosage or serum level and immunoglobulin levels” value [11] of the same compound?
**A.** no significant correlation

**Q.** And the “carbonic anhydrase inhibiting activity, inhibition compared to acetazolamide” value [12]?
**A.** 1/50
